One assay concerns the target T1, MraY (Escherichia coli, UniProt P0A6W3).
T1 construct: MraY activity measured in membranes prepared from wild-type E. coli; endogenous in cells
T1 sequence (P0A6W3 1-360): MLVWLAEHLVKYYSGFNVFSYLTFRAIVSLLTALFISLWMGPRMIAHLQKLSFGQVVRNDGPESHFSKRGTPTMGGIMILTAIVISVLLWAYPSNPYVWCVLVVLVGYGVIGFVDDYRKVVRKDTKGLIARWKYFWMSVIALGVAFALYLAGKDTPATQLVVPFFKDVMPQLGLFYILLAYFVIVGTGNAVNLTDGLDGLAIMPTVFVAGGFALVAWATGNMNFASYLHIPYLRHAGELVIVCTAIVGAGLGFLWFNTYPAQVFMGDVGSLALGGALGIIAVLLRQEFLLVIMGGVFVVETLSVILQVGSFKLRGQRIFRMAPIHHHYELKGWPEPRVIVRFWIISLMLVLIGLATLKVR
In words: Assay of MraY using HP20ss hydrophobic beads. The assay is classed as biochemical, E. coli. As to the method: The reaction catalyzed transfer and use of the radiotracer are shown in FIG. 2, Panel A. The general course of manipulations are diagramed in FIG. 2, Panel D and described in the text. The reaction mixture for the MraY assay included 100 mM Tris, pH 7.5, 30 mM MgCl2, 0.15% Triton X-100, 100 μg/ml Phosphatidyl Glycerol, 40 μM decaprenol phosphate, 14 μM UDP-MurNAC-[^14C]pentapeptide (prepared as described above) and typically 0.5 mg/mL of E. coli cell membranes in a final volume of 50 μL. The phosphatidyl glycerol and decaprenol phosphate, which are supplied in organic solvent, were dried in the reaction tube before the addition of the other components.
The HP20ss resin used to isolate the Lipid I product from the above reaction mixture was equilibrated before use. Briefly, the dry resin was mixed thoroughly with excess methanol in a beaker and allowed to settle for 45 min. […]
For assays whereby the reaction is analyzed at various times, a larger reaction volume was prepared (50 μL is typically appropriate for each time point). […] The filterplate was then quantitated by liquid scintillation spectrometry with a TOPCOUNT (PERKIN ELMER LIFE SCIENCES, Downers Grove, Ill.) using 200 μL of scintillation cocktail (MICROSCINT 40, PERKIN ELMER LIFE SCIENCES, Downers Grove, Ill.) per well.

The next assay concerns MraY/MurG couple. The experiment in a line: Coupled assay of MraY and MurG using HP20ss beads. The assay is classed as biochemical, E. coli. The settings on record: titration of the MraY/MurG couple, 0.5 mg/mL protein at 10 min time (FIG. 5, Panel B). The procedure: The MraY/MurG coupled assay reaction procedure was identical to that described above for the assay of MraY. However, quantitation of the coupled system was performed by monitoring the incorporation of radiolabeled MurG co-substrate UDP-N-[1-^14C]acetyl-glucosamine into the lipophilic product Lipid II. Accordingly, this assay mixture was modified to contain 100 mM Tris, pH 7.5, 30 mM MgCl2, 0.15% Triton X-100, 40 μM decaprenol phosphate, 100 μM UDP-MurNAc-pentapeptide, 100 ug/ml phosphatidyl glycerol, and 20 μM, 0.1 μCi UDP-N-[1-^14C]acetyl-glucosamine and typically 0.5 mg/mL of E. coli cell membranes in a final volume of 50 μL. All other procedures, times and temperatures were identical to those described for the MraY assay.

Results on 2 substances are retold here after patent US20060147934A1, “High speed assay for glycosyl transferases” (priority 2003, published 2006).

Where two headings read alike, the source gives them in different places.

As for tunicamycin, the IC50 entry against MraY (membranes from wild-type E. coli, bead format (text to FIG. 5, Panel A)) was “approximately 1 μg/mL”; on MraY (titration of the MraY assay, 0.5 mg/mL protein at 10 min time (FIG. 5, Panel A), read-out: IC50), 1100 nM.

ramoplanin: the IC50 entry with MraY/MurG couple is “approximately 17 μg/mL”; with MraY/MurG couple (listed as ramoplainin) it was 17 µg/mL.

As a reminder, the IC50 is the concentration that gives 50% inhibition.
